In PubChem BioAssay AID463229 (Broad Institute, 2010):

Test system: INS-1E rat beta cells, no cytokines, CellTiter-Glo ATP, 48 h
Assay: ATP level change in INS-1E without cytokines, dose response, counter-screen for beta-cell apoptosis protection project, INS-1E rat cells, ATP luminescence, cherry pick (AID 463229)

Structure (SMILES) | AC50
Cc1cc(C)nc(SCC(=O)NC2=NN=C(c3ccc(Br)cc3)CS2)n1 | 2.52 µM
O=C(Nc1cc(-c2ccccc2)nn1C1CCCCC1)c1ccc(Cl)cc1 | 3.67 µM
O=C(Nc1cccnc1)c1cccs1 | 1.86 µM
CCCCC(=O)NC(c1ccccc1OC)c1ccc2cccnc2c1O (stereo not drawn) | 2.13 µM
Cc1ccc(S(=O)(=O)c2ccc([N+](=O)[O-])cn2)cc1 | 13.5 µM
CCCNC(=O)c1ccc2c(=O)c(O)c(-c3ccc(Cl)c([N+](=O)[O-])c3)[nH]c2c1 | 10.8 µM
Cc1ccc(F)c([C@H]2C3C=CCC(c4ccccc4)C3C(=O)N2Cc2ccccc2)c1 (stereo partly drawn) | 14.4 µM
C/C(=N\NC(=O)c1ccc(C)cc1)c1c(C)[nH]n(-c2ccccc2)c1=O | 15.3 µM
O=C(/C=C/c1ccc(F)cc1)NC(=S)NNC(=O)c1cnccn1 | 5.29 µM
COc1ccc(OC)c2[nH]c(C(=O)N/N=C/c3ccccc3O)cc12 | 7.58 µM
CC1CCN(Cc2c(C(=O)N/N=C/c3cc(Br)ccc3O)nnn2-c2nonc2N)CC1 | 2.52 µM
CCN(c1ccccc1)S(=O)(=O)c1ccc(NC(=O)c2nc(S(C)(=O)=O)ncc2Cl)cc1 | 8.95 µM
Cc1nc2ccccc2cc1OCc1ccc(F)cc1 | 6.6 µM
Cc1cc(/C=N/n2c(COc3ccccc3C)nc3ccccc3c2=O)c(O)c([N+](=O)[O-])c1 | 8.92 µM
CCCCCCC[n+]1ccc(-c2cc[n+](CCCCCCC)cc2)cc1 | 3 µM
CC(C)N=c1cc2n(-c3ccc(Cl)cc3)c3ccccc3nc-2cc1Nc1ccc(Cl)cc1 | 6.69 µM
Cc1cccc(NC(=O)/C=C/c2ccc([N+](=O)[O-])s2)c1 | 8.56 µM
CC(C)C(=O)NC(c1ccccc1)c1cc([N+](=O)[O-])c2cccnc2c1O (stereo not drawn) | 10.6 µM
N=c1c2c(n(Cc3ccc(Br)cc3)c3c1CCC3)CCCC2 | 3.04 µM
O=C(c1cc(COc2cccc(C(F)(F)F)c2)on1)N1CCC(c2ccncc2)CC1 | 7.14 µM
C#CCOCCOCCOCCNc1nc(N2CCN(C(=O)CCCCCCCCCCNC(=O)[C@H]([C@@H](C)CC)n3cc(CCCCN=C(N)N)nn3)CC2)nc(N2CCN(C(=O)CCCCCCCCCCNC(=O)[C@H](CO)n3cc(CCCCCN)nn3)CC2)n1 | 7.67 µM
Cc1ccc(C(=O)N/C(=C\c2ccc(-c3ccc(Cl)cc3)o2)C(=O)NCCCN(C)C)cc1 | 10.9 µM
COc1cccc(/C=N/Nc2ncnc3scc(-c4ccccc4)c23)c1O | 2.02 µM
O=C(NCC#CCSc1nnc(-c2cccc3ccccc23)o1)c1cccs1 | 1.9 µM
CCN(CC)c1ccc(/C=N/NC(=O)c2nnn(-c3nonc3N)c2C(C)C)c(O)c1 | 1.16 µM
O=C(Nc1cccc([N+](=O)[O-])c1)c1cc2ccccc2cc1O | 4.38 µM
CCCCC(=O)NC(c1ccccc1)c1ccc2cccnc2c1O (stereo not drawn) | 2.24 µM

Structure (SMILES) | AC50
Cc1ccc2nc(-c3ccccn3)c(NC3CCCC3)n2c1 | 16.6 µM
C/C(=N\NC(=O)c1ccccc1OCc1ccc(F)cc1)c1ccccn1 | 8.35 µM
NC1=NC[C@H](Cc2ccc(O)cc2)N1CCCCC1CCCCC1 | 2.34 µM
COc1ccc(C(=O)/C(C#N)=N/Nc2ccc([N+](=O)[O-])cc2)cc1 | 2.15 µM
Cc1ccc2c(c1)S/C(=C/c1ccc[n+](CCO)c1)N2C | 3 µM
CCN(CC)S(=O)(=O)c1ccc(NC(=O)Nc2cccc(C(F)(F)F)c2)cc1 | 8.02 µM
N=c1c2ccccc2nc2n1CCCCCCCCCCC2 | 13.9 µM
Cc1cc(N2CCCC2=O)cc(C)c1S(=O)(=O)NCCOc1ccc(C(C)(C)C)cc1 | 3 µM
COc1ccc(-c2csc(NC(=O)C3CCN(c4ncnc5sc(C)c(C)c45)CC3)n2)cc1OC | 4.88 µM
C/C(=N\Nc1nc2ccccc2[nH]1)c1ccccn1 | 0.56 µM
O=C(Nc1cccc(NC(=O)c2ccccc2Cl)c1)c1ccc([N+](=O)[O-])o1 | 7.58 µM
Nc1nc2ccccc2n1/N=C/c1ccc([N+](=O)[O-])s1 | 7.19 µM
Cc1cc2nc(-c3ccc[nH]c3=O)[nH]c2cc1C | 2.42 µM
CCOC(=O)N1CCN(Cc2cc(Cl)c3cccnc3c2O)CC1 | 13.2 µM
O=[N+]([O-])c1ccc(/C=N/n2cnc3ccccc32)s1 | 4.04 µM
CCOc1ccc(S(=O)(=O)NCc2ccncc2)cc1 | 1.65 µM
CC(=O)NC(c1cccc([N+](=O)[O-])c1)c1ccc2cccnc2c1O (stereo not drawn) | 2.58 µM
CN1/C(=C\C(=O)C[n+]2cccc(Br)c2)C(C)(C)c2ccccc21 | 5.88 µM
Clc1ccc(C(c2ccc(Cl)cc2)n2cc[n+](CC(OCc3ccc(Cl)cc3Cl)c3ccc(Cl)cc3Cl)c2)cc1 (stereo not drawn) | 3.69 µM
Cn1cc(CNCc2ccc(OC(F)(F)F)cc2)c(-c2ccc3c(c2)OCCO3)n1 | 3.64 µM
COc1ccc(Br)cc1CN1CCN(Cc2c[nH]c3ccccc23)CC1 | 7.35 µM
CCn1c(/C=C/c2ccc([N+](=O)[O-])o2)nc2ccccc2c1=O | 4.08 µM
CC1CCC/C=C/C2CC(O)CC2C(O)/C=C/C(=O)O1 (stereo not drawn) | 0.759 µM
COc1ccc(C2/C=C\CN(C(=O)C3CC3)[C@H](Cc3ccccc3)C(=O)N2Cc2ccc(F)cc2)cc1 (stereo partly drawn) | 14.5 µM
Cn1ncc2c(N3CCN(c4ccc(Cl)c(Cl)c4)CC3)ncnc21 | 3.37 µM
CCCCCCSc1cc(-c2nc3ccc(C)cn3c2NCCCC)ccc1OC | 6.79 µM
